A value given as a limit tells only on which side of the number the result lay.

The values below come from patent US20250195490A1, “ALPHA-METHYLENE AND AMINOMETHYL LACTONES AND LACTAMS FOR TREATMENT OF CLOSTRIDIOIDES DIFFICILE INFECTION (CDI)” (Purdue Research Foundation, priority 2022, published 2025).

One experiment deals with E. faecalis (VRE). The experiment is described as follows: microbe, parasite or virus in culture. Type of experiment: cell-based, Enterococcus faecalis. Particulars: aerobic, 37° C., at least 18 hours. On the procedure:
(§1) Method: The minimum inhibitory concentration (MIC) of the compounds and control drugs, linezolid (antibiotic), vancomycin (antibiotic), 5-fluorocytosine (5-FC, antifungal drug), and fluconazole (antifungal drug) was determined using the broth microdilution method according to the guidelines outlined by the Clinical and Laboratory Standards Institute (CLSI) against clinically relevant bacterial (methicillin-resistant Staphylococcus aureus (MRSA), vancomycin-resistant Enterococcus faecalis (VRE), vancomycin-resistant Enterococcus faecium (VRE), Clostridioides difficile and Escherichia coli) and fungal (Candida albicans) strains. A solution equivalent to 0.5 McFarland standard was prepared from each strain and diluted in cation-adjusted Mueller-Hinton broth (for S. aureus and E. coli), tryptone soy broth (for E. faecalis), or brain heart infusion broth (for E. faecium) to achieve a bacterial inoculum of about 5×10^5 CFU/mL. C. difficile strains were cultured in brain heart infusion broth supplemented with hemin and vitamin K. C. albicans was diluted in RPMI medium supplemented with 3-(N-morpholino) propanesulfonic acid to achieve a fungal concentration of about 1.5×10^3 CFU/mL. Compounds and control drugs were added in the first row of the 96-well plates and diluted with media containing bacteria (to achieve a concentration gradient ranging from 128 to 1 μg/mL). For MRSA, VRE, and E. coli strains, plates were then incubated aerobically at 37° C. for at least 18 hours. C. albicans was incubated aerobically at 37° C. for 24 hours. Plates containing C. difficile were incubated anaerobically at […] for 48 hours.

In experiment [1] the test system is C. difficile ATCC 43255. As to the kind of experiment: Antibiotic-induced C. difficile-associated diarrhea mouse model. Type of experiment: in vivo, C57BL/6 mice. As to conditions: 10 mg/kg by gavage daily for 5 days; two mouse models (protocols A and B). On the procedure:
Preliminary in vivo experiments were carried out in two mouse models of antibiotic-induced C. difficile-associated diarrhea and two recurrence models to ensure the feasibility of using this new class of antibiotic orally against C. difficile infection.
Groups of 12-weeks-old female C57BL/6 mice were sensitized to CDI with two different protocols. A—Mice were given antibiotic cocktail containing gentamicin (0.035 mg/mL), kanamycin (0.4 mg/ml), metronidazole (0.215 mg/mL), colistin (850 U/mL), and vancomycin (0.045 mg/mL) in drinking water for 5 days. Then mice were treated with clindamycin (10 mg/kg) two days after withdrawal of the antibiotic cocktail. One day after clindamycin treatment, mice were infected orally with 1.9×10^6 CFU spore suspension of C. difficile ATCC 43255 [32]. Two hours after infection, animals were divided into groups (n=10), and groups received either vehicle (sterile water), Compound 27 (10 mg/kg), or vancomycin (10 mg/kg) by gavage daily for 5 days. B— In the second protocol mice were sensitized to CDI with cefoperazone (1.5 mg/mL) in the drinking water for 10 days. Afterwards, mice were switched to regular water for 2 days, followed by injecting clindamycin (10 mg/kg) intraperitoneally. One day after clindamycin treatment, mice were infected and treated as group A above.

A further experiment concerns E. faecium. As to the kind of experiment: Broth microdilution against vancomycin-resistant E. faecium. As to conditions: gradient 128 to 1 μg/mL. It is filed as cell-based, Enterococcus faecium. The procedure:
as §1

For experiment [2], the system named is C. difficile ATCC 43255. As to the kind of experiment: CDI mouse recurrence model. It is filed as in vivo, C57BL/6 mice. Particulars: for signs of disease during therapy / survival by day 11: 10 mg/kg daily for 5 days. An excerpt: For mouse recurrence, two models were used for testing the efficacy of aminomethyllactone 27 for preventing recurrence after treatment with vancomycin. The two models used were A—Chen et al model and B— a more aggressive protocol that was developed using modified Chen et al. protocol antibiotic cocktail (applying 3× times the doses of the antibiotics). In brief, groups of 12-weeks-old female C57BL/6 mice were sensitized to CDI by giving either the antibiotic cocktail described above or 3× the dose of antibiotics cocktail in the drinking water for 5 days. Then mice were treated with clindamycin (10 mg/kg) two days after withdrawal of the antibiotic cocktail. One day after clindamycin treatment, mice were infected orally with 1.9×10^6 CFU spore suspension of C. difficile ATCC 43255 [32]. Two hours after infection, animals were divided into groups (n=10), and groups received either Compound 27 (10 mg/kg) or vancomycin (10 mg/kg) by gavage daily for 5 days. Treatment was stopped at day 5, and mice were monitored for an additional 23 days. […] However, from day 9 onward (4 days after vancomycin was discontinued), vancomycin-treated mice developed CDI. By day 11, only 60% of the mice treated with vancomycin had survived in the original protocol (lx antibiotic), and there was 0% survival in the aggressive antibiotic protocol (3× antibiotic). […] Symptomatic recurrence of CDI occurs in approximately 20% of patients and is challenging to treat. In addition to subsequent prolongation of C. difficile shedding and transmission, 1 out of every 5 patients with CDI, who experienced a recurrence of the infection, died within 30 days of diagnosis. Compound 27, which reduces recurrences, can potentially prolong the clinical utility of current antibiotics (vancomycin and fidaxomicin).

For `COc1cc(C2OC(=O)C(CN3CCCCC3)C2c2ccccc2Br)ccc1OCc1ccccc1` (racemic) [Compound 27], the “MIC E. faecalis (VRE)” value against E. faecalis (VRE) is over 128 µg/mL. The protection with C. difficile ATCC 43255 [1] was 100%. Further, the “inhibition of the tested strains of E. faecium” value with E. faecium was “did not inhibit”. In addition, the “signs of disease during therapy” value in the experiment on C. difficile ATCC 43255 [2] was “no signs of disease”. In addition, in the experiment with C. difficile ATCC 43255 [2] (28 days, 10 mg/kg oral daily for 5 days), the survival of mice was 100%. Further, the “recurrence of CDI” value with C. difficile ATCC 43255 [2] (for 28 days, 10 mg/kg oral daily for 5 days) was “no recurrence”.

Consider `C=C1C(=O)O[C@H](c2ccccc2O)[C@@H]1c1cccc(C#N)c1` (racemic) [Compound 50], for which the “MIC E. faecalis (VRE)” value with E. faecalis (VRE) was over 128 µg/mL. For the same molecule, the “inhibition of the tested strains of E. faecium” value with E. faecium is reported as “did not inhibit”.

In the case of `CN[C@H](CC(C)C)C(=O)N[C@H]1C(=O)N[C@@H](CC(N)=O)C(=O)N[C@H]2C(=O)N[C@H]3C(=O)N[C@H](C(=O)N[C@H](C(=O)O)c4cc(O)cc(O)c4-c4cc3ccc4O)[C@H](O)c3ccc(c(Cl)c3)Oc3cc2cc(c3O[C@@H]2O[C@H](CO)[C@@H](O)[C@H](O)[C@H]2O[C@H]2C[C@](C)(N)[C@H](O)[C@H](C)O2)Oc2ccc(cc2Cl)[C@H]1O` [Vancomycin, reference compound], the protection in the experiment on C. difficile ATCC 43255 [1] is 100%. In addition, the “signs of disease during therapy” value in the experiment with C. difficile ATCC 43255 [2] is given as “no signs of disease”. Further, the “survival by day 11” value with C. difficile ATCC 43255 [2] (aggressive antibiotic protocol (3× antibiotic)) is on record as 0%; with C. difficile ATCC 43255 [2] (original protocol (1x antibiotic)) it was 60%. In addition, the “day from which treated mice developed CDI” value in the experiment with C. difficile ATCC 43255 [2] (treatment stopped at day 5) was at least 9 days.
